Patent publication US20260042764A1, “COMPOSITIONS AND METHODS FOR INHIBITION OF KRAS” (TheRas, Inc., priority 2022, published 2026)

What was measured:
GP2d cells (KRAS G12D) = experiment: Cell-based pERK HTRF assay in GP2d cell (Biological Example 2); settings: GP2d, GP2d (KRAS G12D) cells
Procedure, shortened: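 Cells grown in DMEM with 10% FBS were exposed to compound for 60 min at 0.25% DMSO, using a 9-point half-log series starting at 1 μM or 100 nM. Lysates were then mixed with d2 and Eu cryptate antibodies for 4–24 h at room temperature, and pERK was read by HTRF.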

[1] = biological target: T1, Avi-KRAS G12D (2-169) GTP/RAF1 RBD-3xFLAG (51-131) (Homo sapiens, UniProt P01116, G12D); experiment: Raf1-KRAS G12D-GTP disruption HTRF assay (Biological Example 3); assay type: binding; settings: KRAS G12D, GTP-loaded
T1 construct: Avi-KRAS G12D (2-169)
T1 sequence (P01116 2-169 isoform P01116-2 G12D): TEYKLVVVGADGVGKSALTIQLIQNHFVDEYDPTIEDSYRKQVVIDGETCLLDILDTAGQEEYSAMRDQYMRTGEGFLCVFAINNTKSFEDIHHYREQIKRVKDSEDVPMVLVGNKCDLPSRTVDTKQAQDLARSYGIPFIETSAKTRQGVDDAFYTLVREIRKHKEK
Procedure, shortened: (§1)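 An HTRF assay measured disruption of 50 nM Avi-KRAS (2-169)-GTP (WT, G12C, G12D or G12V) bound to RAF1 RBD-3xFLAG (51-131). Buffer was Tris pH 7.5 with 5 mM MgCl2 and 10% DMSO. Compounds (30–0.005 μM, 3-fold, 10 points) were incubated 1 h at room temperature, and activity is given as % of DMSO.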

[2] = biological target: T2, Avi-KRAS G12C (2-169) GTP/RAF1 RBD-3xFLAG (51-131) (Homo sapiens, UniProt P01116, G12C); experiment: Raf1-KRAS G12C-GTP disruption HTRF assay (Biological Example 3); assay type: binding; settings: KRAS G12C, GTP-loaded
T2 construct: Avi-KRAS G12C (2-169)
T2 sequence (P01116 2-169 isoform P01116-2 G12C): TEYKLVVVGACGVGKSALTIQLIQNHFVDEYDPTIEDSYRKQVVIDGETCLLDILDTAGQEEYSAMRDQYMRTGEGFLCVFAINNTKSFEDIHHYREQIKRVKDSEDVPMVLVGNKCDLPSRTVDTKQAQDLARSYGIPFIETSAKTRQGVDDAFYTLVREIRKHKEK
Procedure, shortened: as §1

[3] = biological target: T3, Avi-KRAS G12V (2-169) GTP/RAF1 RBD-3xFLAG (51-131) (Homo sapiens, UniProt P01116, G12V); experiment: Raf1-KRAS G12V-GTP disruption HTRF assay (Biological Example 3); assay type: binding; settings: KRAS G12V, GTP-loaded
T3 construct: Avi-KRAS G12V (2-169)
T3 sequence (P01116 2-169 isoform P01116-2 G12V): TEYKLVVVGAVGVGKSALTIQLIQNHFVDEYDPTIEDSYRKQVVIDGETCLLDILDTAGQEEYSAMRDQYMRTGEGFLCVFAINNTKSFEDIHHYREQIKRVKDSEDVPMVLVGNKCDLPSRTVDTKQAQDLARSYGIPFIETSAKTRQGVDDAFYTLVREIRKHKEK
Procedure, shortened: as §1

[4] = biological target: T4, Avi-KRAS WT (2-169) GTP/RAF1 RBD-3xFLAG (51-131) (Homo sapiens, UniProt P01116); experiment: Raf1-KRAS WT-GTP disruption HTRF assay (Biological Example 3); assay type: binding; settings: KRAS WT, GTP-loaded
T4 construct: Avi-KRAS WT (2-169)
T4 sequence (P01116 2-169 isoform P01116-2): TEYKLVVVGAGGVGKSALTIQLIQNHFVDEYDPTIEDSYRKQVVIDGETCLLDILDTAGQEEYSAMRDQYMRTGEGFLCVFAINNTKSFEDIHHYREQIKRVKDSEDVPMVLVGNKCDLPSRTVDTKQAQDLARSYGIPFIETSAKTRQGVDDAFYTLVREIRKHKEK
Procedure, shortened: as §1

SW620 cells (KRAS G12V) = experiment: Cell-based pERK HTRF assay in SW620 cell (Biological Example 4); settings: Homo sapiens, SW-620, SW620 (KRAS G12V) cells
Procedure, shortened: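 SW620 cells were treated for 4 h with compound in a 9-point half-log series from 1 μM top (0.25% DMSO), then lysed. Phospho-ERK was detected by HTRF with d2 and Eu cryptate antibodies after 4–24 h at room temperature, read at 615 nm emission.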

Row | Compound | IC50 (GP2d cells (KRAS G12D)) [nM] | IC50 [1] [nM] | IC50 [2] [nM] | IC50 [3] [nM] | IC50 [4] [nM] | IC50 (SW620 cells (KRAS G12V)) [nM]
1 | CCN(c1nc(OC[C@@]23CCCN2C[C@H](F)C3)nc2c(F)c(-c3ccc(F)c4sc(N)c(C#N)c34)c(C(F)(F)F)cc12)[C@H]1CCN(C(=O)c2cccs2)C1 (atropisomer, axis not shown) [Compound 920] | < 100 | 100 to 1000 | 100 to 1000 | 100 to 1000 | 100 to 1000 | < 100
2 | CCN(c1nc(OC[C@@]23CCCN2C[C@H](F)C3)nc2c(F)c(-c3ccc(F)c4sc(N)c(C#N)c34)c(C(F)(F)F)cc12)[C@H]1CC(=O)N2CCC[C@H]12 (atropisomer, axis not shown) [Compound 880] | < 100 | 100 to 1000 | ≤ 100 | ≤ 100 | 100 to 1000 | < 100
3 | CCN(c1nc(OC[C@@]23CCCN2C[C@H](F)C3)nc2c(F)c(-c3ccc(F)c4sc(N)c(C#N)c34)c(C(F)(F)F)cc12)[C@H]1CCCOC1 (atropisomer, axis not shown) [Compound 965] | < 100 | 100 to 1000 | 100 to 1000 | 100 to 1000 | 100 to 1000 | < 100
4 | CCN(c1nc(OC[C@@]23CCCN2C[C@H](F)C3)nc2c(F)c(-c3ccc(F)c4sc(N)c(C#N)c34)c(C(F)(F)F)cc12)[C@H]1C[C@H](C)N(C(=O)[C@@H]2C[C@H]2F)C1 (atropisomer, axis not shown; (aS)) [Compound 893, 2-amino-4-((S)-4-(ethyl((3S,5S)-1-((1S,2R)-2-fluorocyclopropane-1-carbonyl)-5-methylpyrrolidin-3-yl)amino)-8-fluoro-2-(((2R,7aS)-2-fluorotetrahydro-1H-pyrrolizin-7a (5H)-yl)methoxy)-6-(trifluoromethyl)quinazolin-7-yl)-7-fluorobenzo[b]thiophene-3-carbonitrile] | < 100 | 100 to 1000 | 100 to 1000 | ≤ 100 | 100 to 1000 | < 100
5 | CCN(c1nc(OC[C@@]23CCCN2C[C@H](F)C3)nc2c(F)c(-c3ccc(F)c4sc(N)c(C#N)c34)c(C(F)(F)F)cc12)[C@H]1CCN(C(=O)[C@@H]2CCO2)[C@@H]1C (atropisomer, axis not shown) [Compound 918] | < 100 | ≤ 100 | ≤ 100 | ≤ 100 | ≤ 100 | < 100
6 | CN(c1nc(OC[C@@]23CCCN2C[C@H](F)C3)nc2c(F)c(-c3ccc(F)c4sc(N)c(C#N)c34)c(C(F)(F)F)cc12)[C@H]1CC(=O)N2CCC[C@H]12 (atropisomer, axis not shown) [Compound 934] | < 100 | 100 to 1000 | 100 to 1000 | 100 to 1000 | 100 to 1000 | < 100
7 | CCN(c1nc(OC[C@@]23CCCN2C[C@H](F)C3)nc2c(F)c(-c3ccc(F)c4sc(N)c(C#N)c34)c(C(F)(F)F)cc12)[C@H]1CC[C@@H](C(=O)N(C)C)C1 (atropisomer, axis not shown) [Compound 661] | < 100 | 100 to 1000 | 1000 to 10000 | 1000 to 10000 | 100 to 1000 | < 100
8 | CCN(c1nc(OC[C@@]23CCCN2C[C@H](F)C3)nc2c(F)c(-c3ccc(F)c4sc(N)c(C#N)c34)c(C(F)(F)F)cc12)[C@H]1CCN(C(=O)O[C@H](C)C(F)(F)F)C1 (atropisomer, axis not shown) [Compound 850] | < 100 | 100 to 1000 | 100 to 1000 | 1000 to 10000 | 1000 to 10000 | < 100
9 | CCN(c1nc(OC[C@@]23CCCN2C[C@H](F)C3)nc2c(F)c(-c3ccc(F)c4sc(N)c(C#N)c34)c(C(F)(F)F)cc12)[C@H]1C[C@H]2[C@H](C)N(C)C(=O)N2C1 (atropisomer, axis not shown) [Compound 863] | < 100 | ≤ 100 | ≤ 100 | ≤ 100 | 100 to 1000 | < 100
10 | CCN(c1nc(OC[C@@]23CCCN2C[C@H](F)C3)nc2c(F)c(-c3ccc(F)c4sc(N)c(C#N)c34)c(C(F)(F)F)cc12)[C@@H]1C=C[C@H](C(=O)N(C)C)C1 (atropisomer, axis not shown) [Compound 937] | < 100 | 1000 to 10000 | 1000 to 10000 | 1000 to 10000 | 1000 to 10000 | < 100

Continued, values first:

Row | IC50 (GP2d cells (KRAS G12D)) [nM] | IC50 [1] [nM] | IC50 [2] [nM] | IC50 [3] [nM] | IC50 [4] [nM] | IC50 (SW620 cells (KRAS G12V)) [nM] | Compound
11 | < 100 | 1000 to 10000 | > 10000 | > 10000 | > 10000 | 100 to 1000 | CCN(c1nc(OC[C@@]23CCCN2C[C@H](F)C3)nc2c(F)c(-c3ccc(F)c4sc(N)c(C#N)c34)c(C(F)(F)F)cc12)[C@H]1C=C[C@@H](C(=O)N(C)C)C1 (atropisomer, axis not shown) [Compound 938]
12 | < 100 | 100 to 1000 | 1000 to 10000 | 1000 to 10000 | 100 to 1000 | < 100 | CCN(c1nc(OC[C@@]23CCCN2C[C@H](F)C3)nc2c(F)c(-c3ccc(F)c4sc(N)c(C#N)c34)c(C(F)(F)F)cc12)[C@@H]1CCCN(C)C1=O (atropisomer, axis not shown) [Compound 968]
13 | < 100 | 100 to 1000 | 100 to 1000 | 100 to 1000 | 100 to 1000 | < 100 | CCN(c1nc(OC[C@@]23CCCN2C[C@H](F)C3)nc2c(F)c(-c3ccc(F)c4sc(N)c(C#N)c34)c(C(F)(F)F)cc12)[C@H]1CCN(C(=O)C2C[C@@H]2F)[C@@H]1C (stereo partly drawn) [Compound 883]
14 | < 100 | 100 to 1000 | 100 to 1000 | 100 to 1000 | 100 to 1000 | < 100 | CCN(c1nc(OC[C@@]23CCCN2C[C@H](F)C3)nc2c(F)c(-c3ccc(F)c4sc(N)c(C#N)c34)c(C(F)(F)F)cc12)[C@H]1C[C@H](COC)N(C(=O)[C@@H]2C[C@@H]2F)C1 (atropisomer, axis not shown) [Compound 869]
15 | < 100 | 100 to 1000 | 100 to 1000 | 100 to 1000 | 100 to 1000 | < 100 | CCN(c1nc(OC[C@@]23CCCN2C[C@H](F)C3)nc2c(F)c(-c3ccc(F)c4sc(N)c(C#N)c34)c(C(F)(F)F)cc12)[C@H]1CCN(C(=O)C2CC2)[C@@H]1COC (atropisomer, axis not shown) [Compound 925]
16 | < 100 | 100 to 1000 | 1000 to 10000 | 1000 to 10000 | 1000 to 10000 | < 100 | CN(Cc1ccnnc1)c1nc(OC[C@@]23CCCN2C[C@H](F)C3)nc2c(F)c(-c3ccc(F)c4sc(N)c(C#N)c34)c(C(F)(F)F)cc12 (atropisomer, axis not shown) [Compound 896]
17 | < 100 | 100 to 1000 | 100 to 1000 | 100 to 1000 | 100 to 1000 | < 100 | CCN(c1nc(OC[C@@]23CCCN2C[C@H](F)C3)nc2c(F)c(-c3ccc(F)c4sc(N)c(C#N)c34)c(C(F)(F)F)cc12)[C@H]1CCN(C(=O)[C@H]2C[C@H](F)C2)C1 (atropisomer, axis not shown) [Compound 846]
18 | < 100 | ≤ 100 | 100 to 1000 | 100 to 1000 | 100 to 1000 | < 100 | CCN(c1nc(OC[C@@]23CCCN2C[C@H](F)C3)nc2c(F)c(-c3ccc(F)c4sc(N)c(C#N)c34)c(C(F)(F)F)cc12)[C@H]1C[C@H]2CC(C)(C)C(=O)N2C1 (atropisomer, axis not shown) [Compound 864]
19 | < 100 | ≤ 100 | ≤ 100 | ≤ 100 | 100 to 1000 | < 100 | CCN(c1nc(OC[C@@]23CCCN2C[C@H](F)C3)nc2c(F)c(-c3ccc(F)c4sc(N)c(C#N)c34)c(C(F)(F)F)cc12)[C@H]1CCN(C(=O)c2coc(C)n2)C1 (atropisomer, axis not shown) [Compound 832]
20 | < 100 | 100 to 1000 | 100 to 1000 | 100 to 1000 | 100 to 1000 | < 100 | CCN(c1nc(OC[C@@]23CCCN2C[C@H](F)C3)nc2c(F)c(-c3ccc(F)c4sc(N)c(C#N)c34)c(C(F)(F)F)cc12)[C@H]1C[C@H]2[C@H](C)OC(=O)N2C1 (atropisomer, axis not shown) [Compound 836]
